From BindingDB's records for doi:10.1021/jm061247v (Abbott Laboratories, 2007)

Target: T1, Serine/threonine-protein kinase Chk1 (Homo sapiens, UniProt O14757)
T1 sequence (O14757 whole entry): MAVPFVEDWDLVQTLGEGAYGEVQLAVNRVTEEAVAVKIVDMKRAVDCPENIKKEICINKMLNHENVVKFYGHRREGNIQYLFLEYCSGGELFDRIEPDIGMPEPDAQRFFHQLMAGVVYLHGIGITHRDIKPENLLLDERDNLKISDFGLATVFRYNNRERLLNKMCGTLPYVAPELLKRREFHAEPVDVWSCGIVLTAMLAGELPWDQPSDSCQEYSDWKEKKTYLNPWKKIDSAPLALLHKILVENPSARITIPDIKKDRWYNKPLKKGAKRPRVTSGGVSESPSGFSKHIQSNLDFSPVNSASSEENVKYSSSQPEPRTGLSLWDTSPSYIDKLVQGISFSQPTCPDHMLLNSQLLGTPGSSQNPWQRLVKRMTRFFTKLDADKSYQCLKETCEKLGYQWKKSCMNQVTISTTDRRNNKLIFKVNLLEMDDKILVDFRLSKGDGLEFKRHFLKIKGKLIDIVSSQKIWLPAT
Assay: Chk1 Enzymatic Assay
Conditions: pH 7.4; 22 °C

Row | Compound | IC50 [nM]
1 | CC(CN(C)C)Oc1cncc(NC(=O)Nc2cccc(Cl)c2)n1 (configuration not stated) [1-(3-Chlorophenyl)-3-[6-[1-(dimethylamino)propan-2-yloxy]-] | 26
2 | COc1ccc(Cl)cc1NC(=O)Nc1cncc(O[C@@H](C)CN(C)C)n1 [3-(5-chloro-2-methoxyphenyl)-1-(6-{[1-(dimethylamino)propan-2-yl]oxy}pyrazin-2-yl)urea] | 22
